Measurements as given in PMC8151276, “An Integrated Approach toward NanoBRET Tracers for Analysis of GPCR Ligand Engagement” (Molecules, 2021).

Legend:
VIPR1 = target: T1, VIPR1 (Homo sapiens, UniProt P32241); assay: NanoBRET screen HiBiT-VIPR1 in HEK293; format: binding
T1 construct: purchased Promega (in-house HiBiT-GPCR construct library, NanoBRET)
T1 sequence (P32241 31-457): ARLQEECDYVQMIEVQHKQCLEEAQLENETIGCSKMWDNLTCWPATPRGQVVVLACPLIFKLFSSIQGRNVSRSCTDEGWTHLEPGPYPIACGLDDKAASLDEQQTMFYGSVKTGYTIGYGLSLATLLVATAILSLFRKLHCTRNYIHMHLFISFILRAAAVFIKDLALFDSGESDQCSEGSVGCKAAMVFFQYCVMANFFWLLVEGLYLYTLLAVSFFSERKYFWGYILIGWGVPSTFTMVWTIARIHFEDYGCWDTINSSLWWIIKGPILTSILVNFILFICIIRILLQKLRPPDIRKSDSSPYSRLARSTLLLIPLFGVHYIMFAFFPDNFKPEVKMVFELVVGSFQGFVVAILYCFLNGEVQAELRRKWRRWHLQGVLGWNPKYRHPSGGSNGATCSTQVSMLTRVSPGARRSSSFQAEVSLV
Protocol: (§1) Each tracer candidate was screened across the entire library of HiBiT-GPCR constructs using NanoBRET as the detection modality. As depicted in Figure 4A, the specificity of interactions was evaluated through decrease in BRET due to competitive displacement of a bound tracer by excess parental compound. Each tracer was analyzed for binding to each HiBiT-GPCR fusion in the absence and in the presence of competing parental compound. Briefly, HEK293 cells were transfected with HiBiT-GPCR constructs diluted into promoterless DNA to reduce expression and maximize translocation to the cell surface. Each tracer candidate was then screened at concentrations of 1 μM and 0.1 μM across cells expressing these fusions. Cells were treated for 1.5 h with tracer either alone or in the presence of 20 μM competing parental compound (i.e., control). BRET was measured upon addition of purified LgBiT and subsequent complementation with HiBiT genetically fused to a GPCR. The specificity of interactions was assessed through a decrease in BRET signal due to competitive displacement of the bound tracer. To further gauge the robustness of these interactions, the fold response over the control (i.e., BRETtracer/BRETcontrol) was calculated. We chose a 1.5-fold response, which translates to ≥7-fold signal over noise as the minimal threshold required to score an interaction as positive. […]. Below we highlight the screening results obtained for our exemplary fluorescent tracers based on Clozapine, Amitriptyline and AZD1283.
(§2) HiBiT-GPCR DNA constructs were diluted in 10 mM Tris pH 8 to a final concentration of 0.01 μg/μL, arrayed in 96-well plates and stored at −20 °C. For transfection, HEK293 cells were suspended in Opti-MEM (without phenol red) supplemented with 2% fetal bovine serum (Seradigm) and 100 units/mL penicillin–streptomycin (Gibco) at a final concentration of 220,000 cells/mL and dispensed into white 96-well plates at 90 μL/well. Subsequent transfections and screens were carried using an Agilent Bravo Automated Liquid Handling Platform. First, the 96-well HiBiT DNA arrays were diluted 25-fold in Opti-MEM (without serum or phenol red) to a final concentration of 0.0004 μg/μL and 20 μL of the diluted DNAs were transferred into new 96-well plates. Next, promoterless carrier DNA (1 μg/μL) was diluted 25-fold (0.04 μg/μL) and then dispensed into the diluted arrays at 20 μL/well. Following brief mixing, Viafect transfection reagent (Promega) diluted 16-fold into Opti-MEM was dispensed into the plates at 40 μL/well. After mixing by pipetting, plates were incubated for 10 min on the pipetting station deck. The DNA-transfection reagent complexes were then added to plates containing cells. To facilitate the screen, 10 μL of DNA-transfection reagent complexes were added in duplicates to the top 4 and bottom 4 rows, resulting in two identical 48-well arrays per plate. Plates with transfected cells were incubated for 18–20 h at 37 °C/5% CO2. A screen of each tracer across the entire library using two different concentrations requires duplicate plates of transfected cells. Depending on the number of tracers being screened, transfections can be scaled up using the same ratios. The next day, for each tracer, four 20× screening solutions in tracer dilution buffer (Promega) were prepared: two duplicates at final concentration of 20 μM and two duplicates at a final concentration of 2 μM. A competing unmodified compound was added to one of each duplicate at a final concentration of 400 μM. The four resulting solutions were diluted 4-fold in Opti-MEM without serum or phenol red to generate 5× solutions (5 µM and 0.5 µM tracer +/− 100 μM competing compound). To screen the library, a BioTek MultiFlo FX liquid dispenser was used to dispense 22.5 µL of tracer solution to the top 4 rows and 22.5 µL tracer + competing compound solution to the 4 bottom rows. Plates were briefly mixed on an orbital shaker and incubated for 1.5 h at room temperature. […]

FSHR = target: T2, FSHR (Homo sapiens, UniProt P23945); assay: NanoBRET screen HiBiT-FSHR in HEK293; format: binding
T2 construct: purchased Promega (in-house HiBiT-GPCR construct library, NanoBRET)
T2 sequence (P23945 18-695): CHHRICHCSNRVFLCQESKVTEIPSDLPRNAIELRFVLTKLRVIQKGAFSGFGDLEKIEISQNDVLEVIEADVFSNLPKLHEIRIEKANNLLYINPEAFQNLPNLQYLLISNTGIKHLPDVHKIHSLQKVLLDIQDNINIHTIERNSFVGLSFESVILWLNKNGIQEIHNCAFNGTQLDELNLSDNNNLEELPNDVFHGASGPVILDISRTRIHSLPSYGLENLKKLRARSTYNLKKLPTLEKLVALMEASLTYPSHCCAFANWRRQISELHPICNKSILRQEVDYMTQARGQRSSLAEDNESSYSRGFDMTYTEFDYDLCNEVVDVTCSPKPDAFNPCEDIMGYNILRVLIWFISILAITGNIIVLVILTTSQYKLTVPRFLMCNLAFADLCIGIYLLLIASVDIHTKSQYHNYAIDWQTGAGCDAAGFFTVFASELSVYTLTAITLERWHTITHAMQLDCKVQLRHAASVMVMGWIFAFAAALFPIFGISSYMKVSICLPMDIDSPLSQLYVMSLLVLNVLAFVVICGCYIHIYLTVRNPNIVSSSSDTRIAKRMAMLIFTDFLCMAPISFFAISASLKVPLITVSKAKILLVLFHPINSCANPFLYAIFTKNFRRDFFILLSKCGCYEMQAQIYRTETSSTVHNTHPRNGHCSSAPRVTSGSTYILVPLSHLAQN
Protocol: as §1, §2

[1] = tracer at 0.1μM, listed as amitriptyline-b-2-NB590

CCOC(=O)c1cc(C#N)c(N2CCC(C(=O)NS(=O)(=O)Cc3ccccc3/C=C/C(=O)NCCNC(=O)CCc3ccc4n3[B-](F)(F)[N+]3=C(c5ccc[nH]5)C=CC3=C4)CC2)nc1C [AZD1283-1-NB590]
NanoBRET Fold Response (VIPR1; VIPR1, 0.1μM): 0.99
NanoBRET Fold Response (VIPR1; VIPR1, 1μM): 1.02
NanoBRET Fold Response (FSHR; FSHR, 0.1μM): 0.99
NanoBRET Fold Response (FSHR; FSHR, 1μM): 1.03

N#CN=C(NCCCOc1cccc(CN2CCCCC2)c1)NCCNC(=O)CCOCCOCCOCCOCCNC(=O)CCc1ccc2n1[B-](F)(F)[N+]1=C(c3ccc[nH]3)C=CC1=C2 [Aminopotentidine-2-NB590]
NanoBRET Fold Response (VIPR1; VIPR1, tracer 0.1μM): 1.02
NanoBRET Fold Response (VIPR1; VIPR1, tracer 1μM): 1.00
NanoBRET Fold Response (FSHR; FSHR, tracer 0.1μM): 0.99
NanoBRET Fold Response (FSHR; FSHR, tracer 1μM): 1.06

CN(C)CCC=C1c2ccccc2CCc2ccc(C(=O)NCCNC(=O)CCOCCOCCOCCOCCNC(=O)CCc3ccc4n3[B-](F)(F)[N+]3=C(c5ccc[nH]5)C=CC3=C4)cc21 [Amitriptyline-a-2-NB590]
NanoBRET Fold Response (VIPR1; tracer at 0.1μM): 0.95
NanoBRET Fold Response (VIPR1; tracer at 1μM): 1.07
NanoBRET Fold Response (FSHR; tracer at 0.1μM): 1.02
NanoBRET Fold Response (FSHR; tracer at 1μM): 1.06

CN(C)CCC=C1c2ccccc2CCc2ccc(C(=O)NCCNC(=O)CCOCCOCCOCCOCCNC(=O)CCc3ccc4n3[B-](F)(F)[N+]3=C(c5ccc[nH]5)C=CC3=C4)cc21 [Amitriptyline-b-2-NB590]
NanoBRET Fold Response (VIPR1; [1]): 0.98
NanoBRET Fold Response (VIPR1; tracer at 1μM): 0.96
NanoBRET Fold Response (FSHR; [1]): 1.13
NanoBRET Fold Response (FSHR; tracer at 1μM, listed as amitriptyline-b-2-NB590): 0.96

CN(CCC=C1c2ccccc2CCc2ccccc21)C(=O)CCOCCOCCOCCOCCNC(=O)CCc1ccc2n1[B-](F)(F)[N+]1=C(c3ccc[nH]3)C=CC1=C2 [Amitriptyline-e-2-NB590]
NanoBRET Fold Response (VIPR1; tracer at 1μM): 1.06

COc1ccc2c(n1)c(CCNC(C)=O)cn2CCNC(=O)CCc1ccc2n1[B-](F)(F)[N+]1=C(c3ccc[nH]3)C=CC1=C2 [Azamelatonin-1-NB590]
NanoBRET Fold Response (VIPR1; 0.1μM tracer): 0.99
NanoBRET Fold Response (VIPR1; 1μM tracer): 1.21
NanoBRET Fold Response (FSHR; 0.1μM tracer): 1.08
NanoBRET Fold Response (FSHR; 1μM tracer): 1.08

COc1ccc2[nH]c(-c3ccc(CNC(=O)CCOCCOCCOCCOCCNC(=O)CCc4ccc5n4[B-](F)(F)[N+]4=C(c6ccc[nH]6)C=CC4=C5)cc3)c(CCNC(C)=O)c2n1 [AzomelatoninICO9-2-NB590]
NanoBRET Fold Response (VIPR1; 0.1μM tracer): 0.89
NanoBRET Fold Response (VIPR1; 1μM tracer): 0.81
NanoBRET Fold Response (FSHR; 0.1μM tracer): 1.32
NanoBRET Fold Response (FSHR; 1μM tracer): 1.02

O=C(CCOCCOCCOCCOCCNC(=O)CCc1ccc2n1[B-](F)(F)[N+]1=C(c3ccc[nH]3)C=CC1=C2)NCCCN1CCN(C2=Nc3cc(Cl)ccc3Nc3ccccc32)CC1 [Clozapine-a-2-NB590]
NanoBRET Fold Response (VIPR1; VIPR1, 0.1μM tracer): 0.98
NanoBRET Fold Response (VIPR1; VIPR1, 1μM tracer): 1.10
NanoBRET Fold Response (FSHR; FSHR, 0.1μM tracer): 0.99
NanoBRET Fold Response (FSHR; FSHR, 1μM tracer): 1.32

CN1CCN(C2=Nc3cc(Cl)ccc3Nc3ccc(CNC(=O)CCOCCOCCOCCOCCNC(=O)CCc4ccc5n4[B-](F)(F)[N+]4=C(c6ccc[nH]6)C=CC4=C5)cc32)CC1 [Clozapine-b-2-NB590]
NanoBRET Fold Response (VIPR1; VIPR1, 0.1μM tracer): 1.12
NanoBRET Fold Response (VIPR1; VIPR1, 1μM tracer): 0.99
NanoBRET Fold Response (FSHR; FSHR, 0.1μM tracer): 1.01
NanoBRET Fold Response (FSHR; FSHR, 1μM tracer): 1.05

CN1CCN(C2=Nc3cc(Cl)ccc3N(CC(=O)NCCOCCOCCOCCOCCNC(=O)CCc3ccc4n3[B-](F)(F)[N+]3=C(c5ccc[nH]5)C=CC3=C4)c3ccccc32)CC1 [Clozapine-c-2-NB590]
NanoBRET Fold Response (VIPR1; VIPR1, 0.1μM tracer): 0.98
NanoBRET Fold Response (VIPR1; VIPR1, 1μM tracer): 1.00
NanoBRET Fold Response (FSHR; FSHR, 0.1μM tracer): 1.02
NanoBRET Fold Response (FSHR; FSHR, 1μM tracer): 1.05

O=C(CCOCCOCCOCCOCCNC(=O)CCc1ccc2n1[B-](F)(F)[N+]1=C(c3ccc[nH]3)C=CC1=C2)NCCCN1CCN(C2=Nc3ccccc3Oc3ccc(Cl)cc32)CC1 [Loxapine-a-2-NB590]
NanoBRET Fold Response (VIPR1; VIPR1, tracer 0.1μM): 0.94
NanoBRET Fold Response (VIPR1; VIPR1, tracer 1μM): 1.05
NanoBRET Fold Response (FSHR; FSHR, tracer 0.1μM): 0.98
NanoBRET Fold Response (FSHR; FSHR, tracer 1μM): 1.16

COc1ccccc1N1CCN(CCCCN2C(=O)c3ccc(CNC(=O)CCOCCOCCOCCOCCNC(=O)CCc4ccc5n4[B-](F)(F)[N+]4=C(c6ccc[nH]6)C=CC4=C5)cc3C2=O)CC1 [NAN-190-2-NB590]
NanoBRET Fold Response (VIPR1; VIPR1, tracer 0.1μM): 1.00
NanoBRET Fold Response (VIPR1; VIPR1, tracer 1μM): 1.02
NanoBRET Fold Response (FSHR; FSHR, tracer 0.1μM): 0.97
NanoBRET Fold Response (FSHR; FSHR, tracer 1μM): 0.97

COc1ccccc1N1CCN(CCCCN2C(=O)c3ccc(CNC(=O)CCOCCNC(=O)c4ccc(CNC(=O)CCc5ccc6n5[B-](F)(F)[N+]5=C(c7ccc[nH]7)C=CC5=C6)cc4)cc3C2=O)CC1 [NAN-190-3-NB590]
NanoBRET Fold Response (VIPR1; VIPR1, tracer 0.1μM): 0.71
NanoBRET Fold Response (VIPR1; VIPR1, tracer 1μM): 1.05
NanoBRET Fold Response (FSHR; FSHR, tracer 0.1μM): 0.88
NanoBRET Fold Response (FSHR; FSHR, tracer 1μM): 1.12

O=C(CCc1ccc2n1[B-](F)(F)[N+]1=C(c3ccc[nH]3)C=CC1=C2)NCc1ccc(C(=O)NCCOCCC(=O)N[C@@H]2CC[C@@]3(O)[C@H]4Cc5ccc(O)c6c5[C@@]3(CCN4CC3CC3)[C@H]2O6)cc1 [Naltrexone-3-NB590]
NanoBRET Fold Response (VIPR1; VIPR1, tracer 0.1μM): 0.95
NanoBRET Fold Response (VIPR1; VIPR1, tracer 1μM): 1.36
NanoBRET Fold Response (FSHR; FSHR, tracer 0.1μM): 0.98
NanoBRET Fold Response (FSHR; FSHR, tracer 1μM): 1.07

Cc1cc2c(s1)Nc1ccccc1N=C2N1CCN(CCCNC(=O)CCOCCOCCOCCOCCNC(=O)CCc2ccc3n2[B-](F)(F)[N+]2=C(c4ccc[nH]4)C=CC2=C3)CC1 [Olanzapine-a-2-NB590]
NanoBRET Fold Response (VIPR1; VIPR1, tracer 0.1μM): 1.06
NanoBRET Fold Response (VIPR1; VIPR1, tracer 1μM): 1.04
NanoBRET Fold Response (FSHR; FSHR, tracer 0.1μM): 1.10
NanoBRET Fold Response (FSHR; FSHR, tracer 1μM): 0.99

O=C(CCc1ccc2n1[B-](F)(F)[N+]1=C(c3ccc[nH]3)C=CC1=C2)NCc1ccc(C(=O)NCCOCCOCCNCC(O)COc2cccc3ccccc23)cc1 (stereo not shown) [Propranolol-3-NB590]
NanoBRET Fold Response (VIPR1; VIPR1, 0.1μM): 1.03
NanoBRET Fold Response (VIPR1; VIPR1, 1μM): 1.04
NanoBRET Fold Response (FSHR; FSHR, 0.1μM): 0.98
NanoBRET Fold Response (FSHR; FSHR, 1μM): 1.04
